{"source": "paper PMC4078735", "about": "(Journal of biomolecular screening, 2013)", "key": {"[1]": {"conditions": "PAMPA"}, "[2]": {"conditions": "PAMPA; for Permeability (Log Pe, cm/sec) Porcine polar brain lipid (PBL): pig, pH 7.4"}, "in vitro [3]": {"test": "in vitro", "conditions": "PAMPA, pH 7.4"}, "[4]": {"conditions": "PAMPA; for Permeability (Log Pe, cm/sec) Microvessel lipid + cholesterol (MVLC): pH 7.4"}, "in vitro [5]": {"test": "in vitro", "conditions": "PAMPA, pH 7.4", "remark": "listed apart in the source"}, "[6]": {"conditions": "PAMPA", "remark": "listed apart in the source"}}, "note": "Where a name gives a salt, the structure may show the parent alone."}
{"smiles": "CCC(=O)C(CC(C)N(C)C)(c1ccccc1)c1ccccc1", "note": "(racemic) [Methadone, (±) methadone HCl]", "values": [{"measurement": "Permeability (Log Pe, cm/sec) Dodecane", "setting": "[1]; pH 7.4", "result": "−1.54 ± 0.05", "unit": "cm/sec"}, {"measurement": "Permeability (Log Pe, cm/sec) Porcine polar brain lipid (PBL)", "setting": "[2]", "result": "−0.37 ± 0.07", "unit": "cm/sec"}]}
{"smiles": "Cn1c(=O)c2c(ncn2C)n(C)c1=O", "note": "[Caffeine, caffeine]", "values": [{"measurement": "Papp at 2 h, 2 µM", "setting": "in vitro [3]", "result": 724, "unit": "×10⁻⁶ cm/s"}]}
{"smiles": "COc1ccc2c3c1O[C@H]1C(=O)CC[C@@]4(O)[C@@H](C2)N(C)CC[C@]314", "note": "[Oxycodone, oxycodone]", "values": [{"measurement": "Ability to cross the dodecane barrier", "setting": "[1]", "result": "unable to cross the barrier"}]}
{"smiles": "CN1CC[C@]23c4c5ccc(O)c4O[C@H]2[C@@H](O)CC[C@H]3[C@H]1C5", "note": "[Dihydromorphine, dihydromorphine]", "values": [{"measurement": "Ability to cross the dodecane barrier", "setting": "[1]", "result": "unable to cross the barrier"}, {"measurement": "Papp", "setting": "in vitro [3]", "result": 1510, "unit": "×10⁻⁶ cm/s"}, {"measurement": "Permeability (Log Pe, cm/sec) Porcine polar brain lipid (PBL)", "setting": "[2]", "result": "−1.76 ± 0.09", "unit": "cm/sec"}]}
{"smiles": "CN(C)C[C@H]1CCCC[C@]1(O)c1cccc(O)c1", "note": "[O-desmethyl tramadol, O-desmethyltramadol]", "values": [{"measurement": "Permeability (Log Pe, cm/sec) Porcine polar brain lipid (PBL)", "setting": "[2]", "result": "−0.97 ± 0.04", "unit": "cm/sec"}]}
{"smiles": "CO[C@]12CC[C@@]3(C[C@@H]1[C@](C)(O)C(C)(C)C)[C@H]1Cc4ccc(O[C@@H]5O[C@H](C(=O)O)[C@@H](O)[C@H](O)[C@H]5O)c5c4[C@@]3(CCN1CC1CC1)[C@H]2O5", "note": "[Buprenorphine glucuronide, buprenorphine-3-β-D-glucuronide]", "values": [{"measurement": "Permeability (Log Pe, cm/sec) Microvessel lipid + cholesterol (MVLC)", "setting": "[4]", "result": "−3.27 ± 0.21", "unit": "cm/sec"}]}
{"smiles": "COc1cccc(C2(O)CCCCC2CN(C)C)c1", "note": "(centres unmarked) [Tramadol]", "values": [{"measurement": "Papp", "setting": "in vitro [5]", "result": 117, "unit": "×10⁻⁶ cm/s"}]}
{"smiles": "CN(C)C(=O)C(CCN1CCC(O)(c2ccc(Cl)cc2)CC1)(c1ccccc1)c1ccccc1", "note": "[Loperamide, loperamide]", "values": [{"measurement": "Permeability (Log Pe, cm/sec) Microvessel lipid + cholesterol (MVLC)", "setting": "[4]", "result": "−1.97 ± 0.08", "unit": "cm/sec"}]}
{"smiles": "Cc1nnc2n1-c1ccc(Cl)cc1C(c1ccccc1)=NC2", "note": "[Alprazolam, alprazolam]", "values": [{"measurement": "Permeability in the PBL model (in words)", "setting": "[2]", "result": "highly permeability"}, {"measurement": "Permeability in the MVLC model (in words)", "setting": "[4]", "result": "highly permeability"}, {"measurement": "Permeability in the MVL model (in words)", "setting": "[6]", "result": "highly permeability"}]}
